Source: US20120045393A1 (priority 2009, published 2012)
Read-outs that look alike come from different tables or passages of the source. Non-standard residues stand in square brackets, D forms with d. Primed or numbered codes have the meaning given here. DO3A10CM(3) = metal chelator group attached at the N-terminus (X in table rows); DO3A10CM″ = chelating group at the N-terminus (X in the sequence tables); Bpa = N[C@@H](Cc1ccc(C(=O)c2ccccc2)cc1)C(=O)O; d2Nal = N[C@H](Cc1ccc2ccccc2c1)C(=O)O; DO3A10CM = not defined here; Tha = not defined here; azaGly = NNC(=O)O; Sar = CNCC(=O)O

Assays:
[1] = liver homogenate; settings: female Tac:NCr:Foxn1^nu/nu mice, 37° C., up to 60 min
[2] = test system: EFO-27 human ovarian cancer cells (LHRH binding sites); assay: Saturation binding of radiolabeled LHRH-II analogs to EFO-27 cells
Protocol: Saturation binding of ^125I-LHRH II and the ^177Lu-labeled LHRH II analog ^177Lu-BRU-2666 to EFO-27 cells was carried out to determine the binding affinity, binding capacity (Bmax) and receptor numbers. The data were analyzed for a single binding site using Prizm software.

[3] = test system: EFO-27 cells; assay: Internalization/efflux studies in EFO-27 cells; format: cell-based, human; settings: for Cell associated activity at 0 h % Intern / Cell associated activity at 2 h % Intern: internalized; for Cell associated activity at 0 h % Memb / Cell associated activity at 2 h % Memb: membrane bound; for Bound %: of added; for Bound: per well
Protocol: (§1) Internalization/Efflux Studies: The internalization and efflux studies were carried out following the general procedure. Basically, ^177Lu-LHRH II or ^125I-LHRH II ([^125I-Tyr^8]BRU-2477) (75 uL, 3.0 μCi/mL) was added to the EFO-27 or PC-3 cells. The cells were incubated for 40 min at 37° C. The unbound radioactivity was washed off (4×). Following addition of fresh medium, the cells were further incubated for up to 2 h. At various time points (15, 30, 60 & 120 min) the distribution of radioactivity (membrane-bound, internalized, and efflux) was determined
The internalization and efflux of several Lu-177 labeled LHRH II analogs in EFO-27 cells have been investigated. Basically, following pre-incubation of cells with ^177Lu-LHRH II samples, the binding buffer containing the ^177Lu was replaced with fresh media without complex. The extent of initial internalization (T=0), the amount of radioactive material that remained internalized and the efflux at 0-120 min were determined. The results are shown in FIGS. 21a-f and 22a-c and in Table 25.

[4] = test system: PC-3 (human prostate cancer) cells; assay: Internalization/efflux studies in PC-3 cells; format: cell-based; parameters: Cell associated activity at 2 h % Efflux / Cell associated activity at 0 h % Memb / Cell associated activity at 2 h % Memb: concentration or dose not given beside the values
Protocol: as §1
To determine whether prostate cancer cells (PC-3) behave differently from EFO-27 cells, internalization and efflux studies were carried out with ^177Lu-BRU-2813 using both cell lines.

[5] = test system: LHRH binding sites on human ovarian cancer cells (EFO-27);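 note: Cell-associated radioactivity on confluent EFO-27 monolayers in 96-well plates, measured by microplate scintillation counting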
[6] = target: T1, LHRH binding sites on EFO-27 human ovarian cancer cells (human); assay: competition with [125I-Tyr8]BRU-2477 on EFO-27 cells
T1 chain: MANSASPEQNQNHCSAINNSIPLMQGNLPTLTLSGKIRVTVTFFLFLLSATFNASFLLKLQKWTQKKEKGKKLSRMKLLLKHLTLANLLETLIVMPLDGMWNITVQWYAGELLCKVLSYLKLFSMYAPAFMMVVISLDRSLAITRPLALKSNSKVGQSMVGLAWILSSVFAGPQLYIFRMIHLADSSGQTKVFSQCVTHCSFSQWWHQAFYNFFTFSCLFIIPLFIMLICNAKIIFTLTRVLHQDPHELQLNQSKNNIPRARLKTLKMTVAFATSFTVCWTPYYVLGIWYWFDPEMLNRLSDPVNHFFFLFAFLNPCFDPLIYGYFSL

[7] = target: T1, LHRH binding sites (presumed LHRH …); assay: as above
[8] = target: T1, LHRH binding sites (presumed LHRH …); assay: as above
[9] = target: T1, LHRH binding sites (presumed LHRH …); assay: as above
[10] = saturation binding, single binding site

## pGlu-His-Trp-Ser-His-Darg-Trp-Tyr-Ampc4-azaGly-NH2
[1]
  not cleaved: 100 ± 0 % remaining after 60 min; no metabolism

## DO3A10CM-Dnal2-Arg-Trp-Ser-His-Darg-Trp-Bpa4-Flp4-azaGly-NH2
[1]
  fragment found: lutetium complex of BRU-3064 (DO3A10CM-Dnal2-Arg-Trp-Ser-His-Darg-Trp-Bpa-OH)

## N=C(N)NCCC[C@@H](NC(=O)[C@H](Cc1c[nH]cn1)NC(=O)[C@H](CO)NC(=O)[C@H](Cc1c[nH]c2ccccc12)NC(=O)[C@H](Cc1c[nH]cn1)NC(=O)[C@@H]1CCC(=O)N1)C(=O)N[C@@H](Cc1c[nH]c2ccccc12)C(=O)N[C@@H](Cc1ccc(O)c(I)c1)C(=O)N1CCC[C@H]1C(=O)NNC(N)=O [125I-LHRH II, Darg^6,^125I-Tyr^8,azaGly^10-LHRH-II, reference compound]
[2]
  receptor numbers: 85×10^6 /cell
[2]; [10]
  Kd: 1290 nM
  Max. binding (Bmax): 141 pmoles/10^6 cells
  Receptors/cell: 85 ×10^6
[2]; single binding site
  Kd: 1290 nM
  binding capacity (Bmax): 141 pmoles/million cells
[3]
  Cell associated activity at 0 h % Efflux: 19%
  Cell associated activity at 0 h % Intern: 36.7%
  Cell associated activity at 0 h % Memb: 44.6%
  Cell associated activity at 2 h % Efflux: 87.1%
  Cell associated activity at 2 h % Intern: 4.9%
  Cell associated activity at 2 h % Memb: 3.5%
  Bound %: 1.20%
  Bound: 1.87 fmol
[3]; % of total bound (cell-associated) radioactivity, T=0
  initial internalization: 35.6%

## DO3A10CM-Dnal2-Arg-Trp-Ser-His-Darg-Trp-Bpa4-Ψ(CH2N)Pro-azaGly-NH2
[1]
  not cleaved: 100 ± 0 % remaining after 60 min; no metabolism was observed

## DO3A10CM-Dnal2-Arg-Trp-Ser-His-Darg-Trp-Bpa4-Ampt4-azaGly-NH2
[1]
  not cleaved: 98.7 ± 0.1 % remaining after 60 min; no metabolism was observed

## DO3A10CM-Dnal2-Arg-Trp-Ser-His-Darg-Trp-Bpa4-Aze-azaGly-NH2
[1]
  fragment found: lutetium complex of BRU-3064 (DO3A10CM-Dnal2-Arg-Trp-Ser-His-Darg-Trp-Bpa-OH)

## DO3A10CM-Dnal2-Arg-Trp-Ser-His-Darg-Trp-Bpa4-Pip-azaGly-NH2
[1]
  fragment found: Lu-DO3A10CM-Dnal2-Arg-Trp-Ser-His-Darg-Trp-Bpa4-Pip-OH

## DO3A10CM-Dnal2-Arg-Trp-Ser-His-Darg-Trp-Bpa4-Thz-azaGly-NH2
[1]
  not cleaved: 98.5 ± 0.2 % remaining after 60 min; no metabolism was observed

## N=C(N)NCCC[C@H](NC(=O)[C@@H](Cc1ccc2ccccc2c1)NC(=O)CN1CCN(CC(=O)O)CCN(CC(=O)O)CCN(CC(=O)O)CC1)C(=O)N[C@@H](Cc1c[nH]c2ccccc12)C(=O)N[C@@H](CO)C(=O)N[C@@H](Cc1cnc[nH]1)C(=O)N[C@H](CCCNC(=N)N)C(=O)N[C@@H](Cc1c[nH]c2ccccc12)C(=O)N[C@@H](Cc1ccc(C(=O)c2ccccc2)cc1)C(=O)N1CCC[C@H]1C(=O)NNC(N)=O [BRU-2813, DO3A10CM-Dnal2-Arg-Trp-Ser-His-Darg-Trp-Bpa-Pro-azaGly-NH2]
[3]
  Cell associated activity at 0 h % Efflux: 8.8%
  Cell associated activity at 0 h % Intern: 24.1%
  Cell associated activity at 0 h % Memb: 66.8%
  Cell associated activity at 2 h % Efflux: 75.3%
  Cell associated activity at 2 h % Intern: 7.4%
  Cell associated activity at 2 h % Memb: 17.3%
  Bound %: 19.10%
  Bound: 40.5 fmol
[4]; 0 h
  Cell associated activity at 0 h % Efflux: 12.5%
[4]; 0 h, internalized
  Cell associated activity at 0 h % Intern: 26.2%
[4]; 0 h, membrane bound
  Cell associated activity at 0 h % Memb: 61.9%
[4]; 2 h
  Cell associated activity at 2 h % Efflux: 75.7%
[4]; 2 h, internalized
  Cell associated activity at 2 h % Intern: 7.5%
[4]; 2 h, membrane bound
  Cell associated activity at 2 h % Memb: 16.8%
[4]; of added
  Bound %: 19.26%
[4]; per well
  Bound: 44.3 fmol
[5]; BRU-2813 vs BRU-2666, BRU-2964 vs BRU-2813
  more potency than the comparator analog: 30%
[5]; EFO-27 cells, competition with [125I-Tyr8]BRU-2477, 90 min
  EC50: 330 nM
[5]; Table 19: analogs used in the stabilization studies
  EC50: 420 nM

## pGlu-His-Trp-Ser-His-Darg-Trp-Tyr-Ψ(CH2N)-Pro-azaGly-NH2
[1]
  not cleaved: 100 ± 0 % remaining after 60 min; no metabolism

B1: BRU-2814 (peptide)
peptide: DO3A10CM-[Sar]YWSH[dR]W[Bpa]P[azaGly]-NH2
modifications: reading uncertain
notes: AA2 Tyr
[6]
  EC50: 2240 nM

B2: BRU-2668 (peptide)
peptide: {DO3A10CM(3)}-[Sar]HWSY[dR]W[Bpa]P[azaGly]-NH2
notes: AA5 Tyr
[7]
  EC50: 3470 nM

B3: BRU-3114 (peptide)
peptide: DO3A10CM-[d2Nal]RWWH[dR]W[Bpa]P[azaGly]-NH2
modifications: reading uncertain
notes: AA4 Trp
[8]
  EC50: 11500 nM

B4: BRU-3050 (peptide)
peptide: RRWSHXWXPX
modifications: DO3A10CM on N-terminus; AA6 Darg; AA8 Bpa4; AA10 azaGly-NH2
notes: AA1 Arg, AA2 Arg
[6]
  EC50: 310 nM

B5: BRU-2871 (peptide)
peptide: DO3A10CM-[Sar]KWSH[dR]W[Bpa]P[azaGly]-NH2
modifications: reading uncertain
notes: AA2 Lys
[6]
  EC50: 10000 nM

B6: BRU-2738 (peptide)
peptide: XFWSHXWXPX
modifications: DO3A10CM on N-terminus; AA1 Sar; AA6 Darg; AA8 Bpa4; AA10 azaGly-NH2
notes: AA2 Phe
[6]
  EC50: 1220 nM

B7: BRU-2730 (peptide)
peptide: DO3A10CM-[Sar]HWSH[dR]WFP[azaGly]-NH2
modifications: reading uncertain
notes: AA8 Phe
[9]
  EC50: 12900 nM

B8: BRU-3028 (peptide)
peptide: DO3A10CM-[d2Nal]RWSA[dR]W[Bpa]P[azaGly]-NH2
modifications: reading uncertain
notes: AA5 Ala
[7]
  EC50: 1090 nM

B9: BRU-2667 (peptide)
peptide: {DO3A10CM(3)}-GPHWSH[dR]W[Bpa]P[azaGly]-NH2
notes: AA1 Pro
[6]
  EC50: 7290 nM

B10: BRU-2740 (peptide)
peptide: {DO3A10CM″}-[Sar]WS[Tha][dR]W[Bpa]P[azaGly]-NH2
modifications: reading uncertain
[7]
  EC50: 5530 nM

B11: BRU-2763 (peptide)
peptide: {DO3A10CM″}-[Sar]HWSH[dR]WHP[azaGly]-NH2
notes: AA8 His
[9]
  EC50: 13600 nM

B12: BRU-2954 (peptide)
peptide: DO3A10CM-[d2Nal]RWDH[dR]W[Bpa]P[azaGly]-NH2
modifications: reading uncertain
notes: AA4 Asp
[8]
  EC50: 4200 nM

B13: BRU-2964 (peptide)
peptide: DO3A10CM-[d2Nal]RWMH[dR]W[Bpa]P[azaGly]-NH2
modifications: reading uncertain
notes: AA4 Met
[8]
  EC50: 220 nM

B14: BRU-2723 (peptide)
peptide: DO3A10CM-[Sar]HWSH[dR]WRP[azaGly]-NH2
modifications: reading uncertain
notes: AA8 Arg
[9]
  EC50: 2830 nM

B15: BRU-2956 (peptide)
peptide: XRWNHXWXPX
modifications: DO3A10CM on N-terminus; AA1 Dnal2; AA6 Darg; AA8 Bpa4; AA10 azaGly-NH2
notes: AA4 Asn
[8]
  EC50: 280 nM

B16: BRU-2670 (peptide)
peptide: {DO3A10CM(3)}-[Sar]HWSY[dR]L[Bpa]P[azaGly]-NH2
notes: AA5 Tyr, AA7 Leu
[7]
  EC50: 8840 nM

B17: BRU-2733 (peptide)
peptide: GHWSHXWXPX
modifications: DO3A10CM on N-terminus; AA6 Darg; AA8 Bpa4; AA10 azaGly-NH2
notes: AA1 Gly
[6]
  EC50: 1180 nM

B18: BRU-2735 (peptide)
peptide: FHWSHXWXPX
modifications: DO3A10CM on N-terminus; AA6 Darg; AA8 Bpa4; AA10 azaGly-NH2
notes: AA1 Phe
[6]
  EC50: 1140 nM

B19: BRU-3113 (peptide)
peptide: DO3A10CM-[d2Nal]RWLH[dR]W[Bpa]P[azaGly]-NH2
modifications: reading uncertain
notes: AA4 Leu
[8]
  EC50: 1130 nM

B20: BRU-3029 (peptide)
peptide: DO3A10CM-[d2Nal]RWSL[dR]W[Bpa]P[azaGly]-NH2
modifications: reading uncertain
notes: AA5 Leu
[7]
  EC50: 1210 nM

B21: BRU-2795 (peptide)
peptide: GGHWSHXWXPX
modifications: DO3A10CM-Gly (linker) on N-terminus; AA6 Darg; AA8 Bpa4; AA10 azaGly-NH2
notes: AA1 Gly
[6]
  EC50: 1370 nM
